Key:
Experiment in all cases: relative viability (nuclei count vs DMSO), 5 days (fraction); higher = more cells survive
Zebularine + Foretinib = compound: O=c1ncccn1[C@@H]1O[C@H](CO)[C@@H](O)[C@H]1O [Zebularine] + COc1cc2c(Oc3ccc(NC(=O)C4(C(=O)Nc5ccc(F)cc5)CC4)cc3F)ccnc2cc1OCCCN1CCOCC1 [Foretinib] (partner 0.25 µM)
Summary of the method: (§1)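 Relative viability divides the nuclei count in treated wells by that in vehicle wells. Lung cancer cell lines were seeded in 1536-well plates, dosed by pin tool the next day, and fixed and stained after 5 days in one step with final 0.05% Triton X-100, 1% formaldehyde and 1 ug/ml Hoechst. Dosing was a single drug or a fixed anchor-drug dose plus five library-drug doses (not always all listed) in √10 steps, and values are medians of duplicate plates imaged at 4×.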

Zebularine + Dasatinib = compound: O=c1ncccn1[C@@H]1O[C@H](CO)[C@@H](O)[C@H]1O [Zebularine] + Cc1nc(Nc2ncc(C(=O)Nc3c(C)cccc3Cl)s2)cc(N2CCN(CCO)CC2)n1 [Dasatinib] (partner 0.075 µM)
Summary of the method: as §1

Zebularine + Pemetrexed = compound: O=c1ncccn1[C@@H]1O[C@H](CO)[C@@H](O)[C@H]1O [Zebularine] + Nc1nc2[nH]cc(CCc3ccc(C(=O)N[C@@H](CCC(=O)O)C(=O)O)cc3)c2c(=O)[nH]1 [Pemetrexed] (partner 0.2 µM)
Summary of the method: as §1

BI-D1870 + Palbociclib = compound: CC(C)CCN1c2nc(Nc3cc(F)c(O)c(F)c3)ncc2N(C)C(=O)C1C [BI-D1870] + CC(=O)c1c(C)c2cnc(Nc3ccc(N4CCNCC4)cn3)nc2n(C2CCCC2)c1=O [Palbociclib] (partner 0.5 µM)
Summary of the method: as §1

**Q.** How did the relative viability (Zebularine + Foretinib; first compound 1 µM) turn out when UMC-11 was run?
**A.** 1

**Q.** What about the relative viability (Zebularine + Foretinib; first compound 3.162 µM) of the same cell line?
**A.** 1.06

**Q.** And the relative viability (Zebularine + Foretinib; first compound 10 µM)?
**A.** 0.626

**Q.** And the relative viability (Zebularine + Foretinib; first compound 31.62 µM)?
**A.** 0.635

**Q.** What about the relative viability (Zebularine + Foretinib; first compound 100 µM) of the same cell line?
**A.** 0.357

**Q.** What about the relative viability (Zebularine + Dasatinib; first compound 1 µM) of the same cell line?
**A.** 0.514

**Q.** And the relative viability (Zebularine + Dasatinib; first compound 3.162 µM)?
**A.** 0.471

**Q.** And the relative viability (Zebularine + Dasatinib; first compound 10 µM)?
**A.** 0.205

**Q.** And the relative viability (Zebularine + Dasatinib; first compound 31.62 µM)?
**A.** 0.436

**Q.** What about the relative viability (Zebularine + Dasatinib; first compound 100 µM) of the same cell line?
**A.** 0.324

**Q.** And the relative viability (Zebularine + Pemetrexed; first compound 1 µM)?
**A.** 0.809

**Q.** What about the relative viability (Zebularine + Pemetrexed; first compound 3.162 µM) of the same cell line?
**A.** 0.724

**Q.** And the relative viability (Zebularine + Pemetrexed; first compound 10 µM)?
**A.** 0.388

**Q.** And the relative viability (Zebularine + Pemetrexed; first compound 31.62 µM)?
**A.** 0.649

**Q.** And the relative viability (Zebularine + Pemetrexed; first compound 100 µM)?
**A.** 0.417

**Q.** And the relative viability (BI-D1870 + Palbociclib; first compound 0.04 µM)?
**A.** 0.331

**Q.** And the relative viability (BI-D1870 + Palbociclib; first compound 0.1265 µM)?
**A.** 0.347

**Q.** And the relative viability (BI-D1870 + Palbociclib; first compound 0.4 µM)?
**A.** 0.327

**Q.** And the relative viability (BI-D1870 + Palbociclib; first compound 1.265 µM)?
**A.** 0.309

**Q.** What about the relative viability (BI-D1870 + Palbociclib; first compound 4 µM) of the same cell line?
**A.** 0.272
